Source: patent US11725011B2, “Bicyclic urea kinase inhibitors and uses thereof” (The Broad Institute, Inc., priority 2016, dated 2023)

Experiments:
Test in all cases: KINOMEscan
Format in all cases: binding
Settings in all cases: 1 uM
[1] = target: MAK (Homo sapiens (Human), UniProt P20794)
[2] = target: PRP4 (Homo sapiens (Human), UniProt Q13523)
[3] = target: CAMK1G (Homo sapiens (Human), UniProt Q96NX5)
[4] = target: PIP5K1A (Homo sapiens (Human), UniProt Q99755)
[5] = target: PDGFRB (Homo sapiens (Human), UniProt P09619)
[6] = target: CAMK2D (Homo sapiens (Human), UniProt Q13557)
[7] = target: CLK3 (Homo sapiens (Human), UniProt P49761)
[8] = target: CSNK1A1L (Homo sapiens (Human), UniProt Q8N752)
[9] = target: NDR2 (Homo sapiens (Human), UniProt Q9Y2H1)
[10] = target: MLCK (Homo sapiens (Human), UniProt Q32MK0)
[11] = target: HIPK2 (Homo sapiens (Human), UniProt Q9H2X6)
[12] = target: PIK3CB (Homo sapiens (Human), UniProt P42338)
[13] = target: PRKCI (Homo sapiens (Human), UniProt P41743)
[14] = target: ERBB2 (Homo sapiens (Human), UniProt P04626)
[15] = target: SLK (Homo sapiens (Human), UniProt Q9H2G2)
[16] = target: PAK7 (Homo sapiens (Human), UniProt Q9P286)
[17] = target: BMX (Homo sapiens (Human), UniProt P51813)
[18] = target: AAK1 (Homo sapiens (Human), UniProt Q2M2I8)
[19] = target: ABL1 (H396P)-nonphosphorylated (Homo sapiens (Human), UniProt P00519, H396P)
[20] = target: TAOK3 (Homo sapiens (Human), UniProt Q9H2K8)
[21] = target: CDKL1 (Homo sapiens (Human), UniProt Q00532)
[22] = target: ADCK4 (Homo sapiens (Human), UniProt Q96D53)
[23] = target: GCN2 (Kin.Dom.2, S808G) (Homo sapiens (Human), UniProt Q9P2K8, S808G)
[24] = target: PKAC-beta (Homo sapiens (Human), UniProt P22694)
[25] = target: ABL1-nonphosphorylated (Homo sapiens (Human), UniProt P00519)
[26] = target: CAMK4 (Homo sapiens (Human), UniProt Q16566)
[27] = target: SGK2 (Homo sapiens (Human), UniProt Q9HBY8)
[28] = target: RSK3 (Kin.Dom.1-N-terminal) (Homo sapiens (Human), UniProt Q15349)
[29] = target: EGFR (L861Q) (Homo sapiens (Human), UniProt P00533, L861Q)
[30] = target: EGFR (S752-I759del) (Homo sapiens (Human), UniProt P00533, DEL752-759)
[31] = target: ICK (Homo sapiens (Human), UniProt Q9UPZ9)
[32] = target: ACVRL1 (Homo sapiens (Human), UniProt P37023)
[33] = target: HUNK (Homo sapiens (Human), UniProt P57058)
[34] = target: SRPK3 (Homo sapiens (Human), UniProt Q9UPE1)
[35] = target: PRKG2 (Homo sapiens (Human), UniProt Q13237)
[36] = target: RSK2 (Kin.Dom.2-C-terminal) (Homo sapiens (Human), UniProt P51812)
[37] = target: SIK2 (Homo sapiens (Human), UniProt Q9H0K1)
[38] = target: SRC (Homo sapiens (Human), UniProt P12931)
[39] = target: RIPK5 (Homo sapiens (Human), UniProt Q6XUX3)
[40] = target: VEGFR2 (Homo sapiens (Human), UniProt P35968)
[41] = target: NEK11 (Homo sapiens (Human), UniProt Q8NG66)
Sequence of NEK11 (Q8NG66 whole entry): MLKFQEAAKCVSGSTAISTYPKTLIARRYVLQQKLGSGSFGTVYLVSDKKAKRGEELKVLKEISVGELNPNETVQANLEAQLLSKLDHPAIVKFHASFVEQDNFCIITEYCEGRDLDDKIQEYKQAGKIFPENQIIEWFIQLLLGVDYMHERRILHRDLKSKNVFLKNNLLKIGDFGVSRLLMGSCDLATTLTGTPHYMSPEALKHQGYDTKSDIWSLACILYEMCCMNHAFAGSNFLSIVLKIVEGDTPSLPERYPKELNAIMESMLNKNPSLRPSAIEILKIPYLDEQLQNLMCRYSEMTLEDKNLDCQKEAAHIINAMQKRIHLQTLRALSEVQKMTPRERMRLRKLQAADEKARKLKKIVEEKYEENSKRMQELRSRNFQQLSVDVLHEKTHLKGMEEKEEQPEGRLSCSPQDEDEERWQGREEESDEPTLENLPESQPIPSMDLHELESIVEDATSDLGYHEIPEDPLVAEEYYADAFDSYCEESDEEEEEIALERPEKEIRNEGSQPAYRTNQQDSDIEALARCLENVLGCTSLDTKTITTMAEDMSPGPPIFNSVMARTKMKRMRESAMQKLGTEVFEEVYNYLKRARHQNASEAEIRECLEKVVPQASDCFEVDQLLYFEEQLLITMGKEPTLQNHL

Sequence of CAMK1G (Q96NX5 whole entry): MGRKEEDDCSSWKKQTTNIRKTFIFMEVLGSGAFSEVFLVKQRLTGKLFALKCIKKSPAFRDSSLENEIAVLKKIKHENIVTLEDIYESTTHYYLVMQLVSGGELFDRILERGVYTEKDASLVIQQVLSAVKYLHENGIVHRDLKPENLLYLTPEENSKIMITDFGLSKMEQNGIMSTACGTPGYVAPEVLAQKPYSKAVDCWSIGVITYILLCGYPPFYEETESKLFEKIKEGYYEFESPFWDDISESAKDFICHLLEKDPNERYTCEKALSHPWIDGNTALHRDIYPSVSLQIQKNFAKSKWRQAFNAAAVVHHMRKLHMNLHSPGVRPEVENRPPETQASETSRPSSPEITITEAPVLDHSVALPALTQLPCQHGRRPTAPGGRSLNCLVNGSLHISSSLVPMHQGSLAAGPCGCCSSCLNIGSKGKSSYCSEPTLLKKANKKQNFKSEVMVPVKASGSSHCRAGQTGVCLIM
Sequence of SIK2 (Q9H0K1 whole entry): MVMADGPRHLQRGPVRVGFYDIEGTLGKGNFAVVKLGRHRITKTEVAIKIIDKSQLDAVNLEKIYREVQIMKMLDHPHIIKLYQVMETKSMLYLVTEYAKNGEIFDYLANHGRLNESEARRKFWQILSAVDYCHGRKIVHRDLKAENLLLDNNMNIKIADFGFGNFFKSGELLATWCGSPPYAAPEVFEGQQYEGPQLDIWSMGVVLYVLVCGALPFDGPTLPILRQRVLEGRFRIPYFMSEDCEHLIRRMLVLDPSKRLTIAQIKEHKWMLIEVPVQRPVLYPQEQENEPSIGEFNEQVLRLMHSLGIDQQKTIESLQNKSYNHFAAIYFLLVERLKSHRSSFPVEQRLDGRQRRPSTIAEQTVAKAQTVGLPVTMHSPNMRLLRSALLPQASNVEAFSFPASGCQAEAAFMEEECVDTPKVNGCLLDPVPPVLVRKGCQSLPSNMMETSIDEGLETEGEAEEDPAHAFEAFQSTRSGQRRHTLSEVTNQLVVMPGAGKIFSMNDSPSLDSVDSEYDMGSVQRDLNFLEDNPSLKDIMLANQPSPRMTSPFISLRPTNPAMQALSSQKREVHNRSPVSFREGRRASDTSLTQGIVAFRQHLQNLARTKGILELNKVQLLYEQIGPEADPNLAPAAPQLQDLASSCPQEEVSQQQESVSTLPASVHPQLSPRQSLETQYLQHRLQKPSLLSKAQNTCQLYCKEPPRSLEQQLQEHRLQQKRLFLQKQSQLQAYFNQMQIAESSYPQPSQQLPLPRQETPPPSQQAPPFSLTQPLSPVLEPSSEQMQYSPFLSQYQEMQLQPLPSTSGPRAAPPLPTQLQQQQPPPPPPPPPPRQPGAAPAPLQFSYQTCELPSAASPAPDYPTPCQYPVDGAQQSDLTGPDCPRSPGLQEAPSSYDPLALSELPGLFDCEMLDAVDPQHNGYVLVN
Sequence of NDR2 (Q9Y2H1 whole entry): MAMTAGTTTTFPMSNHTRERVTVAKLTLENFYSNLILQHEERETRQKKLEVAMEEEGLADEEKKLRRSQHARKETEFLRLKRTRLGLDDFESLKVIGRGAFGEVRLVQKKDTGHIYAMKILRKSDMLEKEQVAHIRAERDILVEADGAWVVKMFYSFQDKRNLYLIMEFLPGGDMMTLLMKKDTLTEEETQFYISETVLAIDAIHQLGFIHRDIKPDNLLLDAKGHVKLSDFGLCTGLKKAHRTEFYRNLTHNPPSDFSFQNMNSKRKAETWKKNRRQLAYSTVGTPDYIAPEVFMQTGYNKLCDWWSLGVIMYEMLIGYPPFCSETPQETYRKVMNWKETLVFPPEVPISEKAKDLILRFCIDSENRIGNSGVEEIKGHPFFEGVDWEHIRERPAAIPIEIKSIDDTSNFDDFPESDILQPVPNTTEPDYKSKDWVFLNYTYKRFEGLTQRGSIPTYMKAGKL
Sequence of GCN2 (Kin.Dom.2, S808G) (Q9P2K8 590-1001 S808G): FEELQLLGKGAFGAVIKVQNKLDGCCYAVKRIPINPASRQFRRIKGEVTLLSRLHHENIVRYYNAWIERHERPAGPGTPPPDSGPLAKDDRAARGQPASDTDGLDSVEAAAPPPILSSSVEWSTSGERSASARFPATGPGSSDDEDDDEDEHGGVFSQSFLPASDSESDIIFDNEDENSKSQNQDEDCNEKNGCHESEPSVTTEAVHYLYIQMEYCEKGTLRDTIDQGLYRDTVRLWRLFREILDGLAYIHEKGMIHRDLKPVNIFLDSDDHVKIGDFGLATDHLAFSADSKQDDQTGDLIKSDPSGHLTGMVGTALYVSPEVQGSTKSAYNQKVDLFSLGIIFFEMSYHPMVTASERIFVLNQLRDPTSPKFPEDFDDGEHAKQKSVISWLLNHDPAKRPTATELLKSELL
Sequence of EGFR (S752-I759del) (P00533 other isoform, or with tags, fused parts or gaps del S752-I759): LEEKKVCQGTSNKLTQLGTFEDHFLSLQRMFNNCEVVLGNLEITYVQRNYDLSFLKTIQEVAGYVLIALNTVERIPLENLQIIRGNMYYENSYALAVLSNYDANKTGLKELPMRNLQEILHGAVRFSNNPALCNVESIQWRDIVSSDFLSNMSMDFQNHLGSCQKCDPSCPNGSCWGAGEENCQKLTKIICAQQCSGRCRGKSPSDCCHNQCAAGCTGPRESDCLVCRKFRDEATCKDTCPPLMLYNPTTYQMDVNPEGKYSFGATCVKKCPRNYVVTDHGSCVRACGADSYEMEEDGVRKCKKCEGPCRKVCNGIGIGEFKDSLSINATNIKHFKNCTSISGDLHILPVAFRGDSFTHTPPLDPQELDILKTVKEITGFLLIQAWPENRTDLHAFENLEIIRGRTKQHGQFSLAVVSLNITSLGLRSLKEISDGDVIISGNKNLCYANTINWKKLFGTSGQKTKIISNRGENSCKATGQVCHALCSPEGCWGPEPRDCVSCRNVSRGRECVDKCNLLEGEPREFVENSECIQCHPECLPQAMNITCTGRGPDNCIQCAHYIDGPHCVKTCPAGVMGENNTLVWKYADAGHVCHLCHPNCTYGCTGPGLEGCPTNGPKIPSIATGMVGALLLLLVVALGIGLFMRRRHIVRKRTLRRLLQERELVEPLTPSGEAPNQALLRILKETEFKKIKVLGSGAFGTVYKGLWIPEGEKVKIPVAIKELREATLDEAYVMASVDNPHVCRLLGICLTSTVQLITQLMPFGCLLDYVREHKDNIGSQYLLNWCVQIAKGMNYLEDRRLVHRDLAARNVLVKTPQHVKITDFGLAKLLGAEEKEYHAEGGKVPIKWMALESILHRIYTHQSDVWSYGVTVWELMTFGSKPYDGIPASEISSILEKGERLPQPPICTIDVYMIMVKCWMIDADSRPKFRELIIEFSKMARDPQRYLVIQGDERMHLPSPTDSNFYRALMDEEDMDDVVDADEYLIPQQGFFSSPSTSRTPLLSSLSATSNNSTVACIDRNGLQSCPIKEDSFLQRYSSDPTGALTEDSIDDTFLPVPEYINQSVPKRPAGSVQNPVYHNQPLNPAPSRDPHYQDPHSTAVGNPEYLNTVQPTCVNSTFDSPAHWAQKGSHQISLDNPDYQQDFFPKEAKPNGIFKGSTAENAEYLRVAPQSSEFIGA
Sequence of PRKCI (P41743 whole entry): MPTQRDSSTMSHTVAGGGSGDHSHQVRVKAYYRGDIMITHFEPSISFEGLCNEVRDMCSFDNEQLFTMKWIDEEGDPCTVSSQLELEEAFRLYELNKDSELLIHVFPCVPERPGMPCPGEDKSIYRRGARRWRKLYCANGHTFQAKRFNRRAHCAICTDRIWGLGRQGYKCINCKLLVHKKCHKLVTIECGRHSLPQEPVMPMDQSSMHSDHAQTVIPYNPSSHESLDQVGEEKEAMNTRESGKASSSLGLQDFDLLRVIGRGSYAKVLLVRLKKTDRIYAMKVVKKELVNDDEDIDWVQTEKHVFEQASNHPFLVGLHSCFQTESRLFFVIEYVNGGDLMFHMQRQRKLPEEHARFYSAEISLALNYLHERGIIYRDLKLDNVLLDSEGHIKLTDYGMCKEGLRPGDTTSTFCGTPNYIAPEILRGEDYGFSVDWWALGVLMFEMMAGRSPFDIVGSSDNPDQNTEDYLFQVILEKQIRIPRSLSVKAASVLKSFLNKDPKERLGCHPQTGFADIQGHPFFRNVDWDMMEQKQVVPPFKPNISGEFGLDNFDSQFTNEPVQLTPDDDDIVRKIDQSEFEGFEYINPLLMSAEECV
Sequence of CSNK1A1L (Q8N752 whole entry): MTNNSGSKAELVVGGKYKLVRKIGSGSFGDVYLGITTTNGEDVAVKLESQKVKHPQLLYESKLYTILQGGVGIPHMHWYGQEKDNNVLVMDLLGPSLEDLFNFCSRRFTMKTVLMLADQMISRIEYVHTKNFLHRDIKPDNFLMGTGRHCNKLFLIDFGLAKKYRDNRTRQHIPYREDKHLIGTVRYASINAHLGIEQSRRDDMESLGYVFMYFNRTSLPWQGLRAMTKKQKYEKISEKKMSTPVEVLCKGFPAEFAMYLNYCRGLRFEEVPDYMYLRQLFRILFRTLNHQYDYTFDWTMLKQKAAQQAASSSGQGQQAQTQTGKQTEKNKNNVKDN

Compound: COc1ccc(N2C(=O)N(c3c(C)cccc3C)Cc3cnc(Nc4ccc(N5CCN(C)CC5)cc4)nc32)c(OC)c1 [HG-11-136-01]
- KINOMEscan MAK [1]: 100
- KINOMEscan PRP4 [2]: 100
- KINOMEscan CAMK1G [3]: 95
- KINOMEscan PIP5K1A [4]: 14
- KINOMEscan PDGFRB [5]: 0
- KINOMEscan CAMK2D [6]: 100
- KINOMEscan CLK3 [7]: 78
- KINOMEscan CSNK1A1L [8]: 97
- KINOMEscan NDR2 [9]: 28
- KINOMEscan MLCK [10]: 100
- KINOMEscan HIPK2 [11]: 0.95
- KINOMEscan PIK3CB [12]: 92
- KINOMEscan PRKCI [13]: 63
- KINOMEscan ERBB2 [14]: 0
- KINOMEscan SLK [15]: 0.1
- KINOMEscan PAK7 [16]: 1.3
- KINOMEscan BMX [17]: 3
- KINOMEscan AAK1 [18]: 13
- KINOMEscan ABL1 (H396P)-nonphosphorylated [19]: 0
- KINOMEscan TAOK3 [20]: 1.8
- KINOMEscan CDKL1 [21]: 84
- KINOMEscan ADCK4 [22]: 44
- KINOMEscan GCN2 (Kin.Dom.2, S808G) [23]: 0.75
- KINOMEscan PKAC-beta [24]: 66
- KINOMEscan ABL1-nonphosphorylated [25]: 0
- KINOMEscan CAMK4 [26]: 100
- KINOMEscan SGK2 [27]: 76
- KINOMEscan RSK3 (Kin.Dom.1-N-terminal) [28]: 40
- KINOMEscan EGFR (L861Q) [29]: 0
- KINOMEscan EGFR (S752-I759del) [30]: 4.2
- KINOMEscan ICK [31]: 61
- KINOMEscan ACVRL1 [32]: 16
- KINOMEscan HUNK [33]: 28
- KINOMEscan SRPK3 [34]: 70
- KINOMEscan PRKG2 [35]: 92
- KINOMEscan RSK2 (Kin.Dom.2-C-terminal) [36]: 51
- KINOMEscan SIK2 [37]: 6.1
- KINOMEscan SRC [38]: 0.15
- KINOMEscan RIPK5 [39]: 2.8
- KINOMEscan VEGFR2 [40]: 1.8
- KINOMEscan NEK11 [41]: 21
